One block for each compound: values may come before it. Calls of active or inactive are those of the source.
Legend:
[1] = biological target: T1, Corticotropin-releasing factor receptor 2/Corticotropin-releasing factor-binding protein (Homo sapiens, UniProt P24387+Q13324); test: Dose Response confirmation of uHTS hits for small molecule antagonists of the CRF-binding protein and CRF-R2 receptor complex.; format: functional; conditions: read-out: IC50_Mean
T1 sequence (Q13324 whole entry): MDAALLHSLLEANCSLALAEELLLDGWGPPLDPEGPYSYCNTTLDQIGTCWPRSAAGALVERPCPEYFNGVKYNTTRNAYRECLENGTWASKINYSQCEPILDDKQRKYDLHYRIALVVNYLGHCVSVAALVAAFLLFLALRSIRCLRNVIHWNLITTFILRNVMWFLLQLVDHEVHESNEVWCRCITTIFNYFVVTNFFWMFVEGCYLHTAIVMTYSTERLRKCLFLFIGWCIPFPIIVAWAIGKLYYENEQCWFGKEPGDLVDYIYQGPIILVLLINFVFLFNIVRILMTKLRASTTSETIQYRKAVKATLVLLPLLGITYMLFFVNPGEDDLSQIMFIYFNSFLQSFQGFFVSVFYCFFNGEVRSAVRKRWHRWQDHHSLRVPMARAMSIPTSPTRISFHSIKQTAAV
T1 sequence (P24387 whole entry): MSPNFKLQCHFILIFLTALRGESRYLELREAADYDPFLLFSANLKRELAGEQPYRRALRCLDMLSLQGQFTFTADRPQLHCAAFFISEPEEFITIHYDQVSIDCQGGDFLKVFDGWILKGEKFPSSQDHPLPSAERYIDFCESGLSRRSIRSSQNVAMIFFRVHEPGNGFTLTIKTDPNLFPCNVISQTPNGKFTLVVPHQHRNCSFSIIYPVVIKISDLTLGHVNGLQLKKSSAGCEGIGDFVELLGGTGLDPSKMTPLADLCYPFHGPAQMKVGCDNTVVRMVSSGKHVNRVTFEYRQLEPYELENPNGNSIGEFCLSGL

[2] = biological target: T2, Heat shock factor protein 1 (Mus musculus, UniProt P38532); test: enhancement of HSF1-driven luciferase signal – cell-based, NIH3T3, luminescence, dose retest, confirmation (AID 435004); format: functional;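 note: stress induced by proteasome inhibitor MG132 added 30 min after compound; luciferase reporter driven by HSF1 response element in NIH3T3 cells; actives raise luminescence as potentiators of the MG132 stress response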
T2 sequence (P38532 whole entry): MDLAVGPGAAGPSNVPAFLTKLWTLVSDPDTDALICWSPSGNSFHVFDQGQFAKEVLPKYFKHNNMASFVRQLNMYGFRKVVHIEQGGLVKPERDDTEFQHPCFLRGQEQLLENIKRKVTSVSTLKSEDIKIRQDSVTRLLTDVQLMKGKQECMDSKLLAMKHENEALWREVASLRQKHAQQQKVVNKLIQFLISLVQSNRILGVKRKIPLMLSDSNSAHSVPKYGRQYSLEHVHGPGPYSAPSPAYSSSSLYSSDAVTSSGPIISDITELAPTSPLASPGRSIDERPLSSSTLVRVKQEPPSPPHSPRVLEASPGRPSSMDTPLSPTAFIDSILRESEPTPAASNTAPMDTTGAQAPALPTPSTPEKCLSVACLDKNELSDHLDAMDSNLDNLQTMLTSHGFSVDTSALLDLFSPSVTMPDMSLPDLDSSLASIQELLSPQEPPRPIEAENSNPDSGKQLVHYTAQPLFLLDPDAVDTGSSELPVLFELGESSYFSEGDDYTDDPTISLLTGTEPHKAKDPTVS

[3] = biological target: T1, Corticotropin-releasing factor receptor 2/Corticotropin-releasing factor-binding protein; test: activators of CRF receptor 2 with binding protein – uHTS hits, confirmation (AID 602473); format: functional; conditions: read-out: EC50_Mean
[4] = blockers of CRF-binding protein–CRF-R2 complex – cell-based, uHTS hits, 384-well, dose response (AID 651639); format: functional, Homo sapiens; conditions: read-out: IC50_Mean
[5] = biological target: Induced myeloid leukemia cell differentiation protein Mcl-1 (Homo sapiens, UniProt Q07820); format: functional
[6] = biological target: DNA dC->dU-editing enzyme APOBEC-3G (Homo sapiens, UniProt Q9HC16); test: Dose Response confirmation of small molecule APOBEC3G DNA Deaminase Inhibitors via a fluorescence-based single-stranded DNA deaminase assay. [Related pubchem assays (depositor defined):AID493012, AID493028]; format: functional
[7] = activation of miR-122 Renilla sensor silencing – cell-based, Huh7 psiCHECK-miR122, Renilla luciferase, cherry-picked, dose response (AID 651956); format: functional;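 note: huh7 hepatoma cells stably carrying a psiCHECK-2 miR-122 sensor plasmid; renilla luciferase signal reporting endogenous miR-122 activity after 48 h compound exposure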
[8] = intracellular Trypanosoma cruzi inhibitors in host cells – cell-based, plate reader, cherry-pick samples, set 3, dose response (AID 651818); format: functional;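 note: compounds incubated with infected cells for about four days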
[9] = Dd2 malaria parasite growth inhibition potency – SYBR Green, dry powder samples, dose response (AID 1159566); format: functional, cell-based;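 note: potency for growth inhibition with lower SYBR green DNA signal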
[10] = growth inhibition of yeast DHODH-expressing 3D7 parasites – SYBR Green, dry powder samples, dose response (AID 1159570); format: functional, cell-based;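 note: parasite growth measured after 72 hours of compound exposure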
[11] = P. falciparum Dd2 growth inhibitors, dose response, SYBR Green, cherry-picked samples (AID 1159567); format: functional, cell-based
[12] = growth inhibition of PfATP4-mutant resistant parasites – NITD609-resistant line, SYBR Green, dry powder, dose response (AID 1159571); format: functional, cell-based;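 note: parasites synchronized at ring stage by sorbitol before testing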
[13] = toxicity to human HepG2 hepatoma cells – cell-based, plate reader, dry powder samples, cytotoxicity control, dose response (AID 1159569); format: functional;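 note: inhibitor potency with signal falling toward the positive control level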

Sequence of Induced myeloid leukemia cell differentiation protein Mcl-1 (Q07820 whole entry): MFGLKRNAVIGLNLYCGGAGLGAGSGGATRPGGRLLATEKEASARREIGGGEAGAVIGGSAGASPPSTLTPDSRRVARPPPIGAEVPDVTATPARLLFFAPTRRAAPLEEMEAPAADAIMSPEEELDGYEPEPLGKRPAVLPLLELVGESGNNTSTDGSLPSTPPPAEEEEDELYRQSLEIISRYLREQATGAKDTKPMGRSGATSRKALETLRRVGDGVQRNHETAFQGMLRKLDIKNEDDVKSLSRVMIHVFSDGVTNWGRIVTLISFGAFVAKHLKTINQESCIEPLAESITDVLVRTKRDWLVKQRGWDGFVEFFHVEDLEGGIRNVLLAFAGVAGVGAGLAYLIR
Sequence of DNA dC->dU-editing enzyme APOBEC-3G (Q9HC16 whole entry): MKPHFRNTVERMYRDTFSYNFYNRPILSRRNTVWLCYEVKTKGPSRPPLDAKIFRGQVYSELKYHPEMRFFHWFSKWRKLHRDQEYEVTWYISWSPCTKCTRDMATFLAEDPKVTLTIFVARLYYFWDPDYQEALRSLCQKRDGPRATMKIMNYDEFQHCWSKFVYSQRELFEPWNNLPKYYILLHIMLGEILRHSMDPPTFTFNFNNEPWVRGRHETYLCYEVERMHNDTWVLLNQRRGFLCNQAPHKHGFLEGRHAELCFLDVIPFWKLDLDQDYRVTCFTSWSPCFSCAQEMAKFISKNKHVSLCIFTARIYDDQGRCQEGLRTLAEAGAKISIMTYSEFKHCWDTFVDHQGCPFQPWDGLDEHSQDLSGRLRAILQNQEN

IC50 [1]: 1.85 µM (active)
EC50 [2]: > 260 µM (inactive)
EC50 [3]: > 53 µM (inactive)
IC50 [4]: 3.77 µM (active)
Compound: COc1ccc(C(=O)COC(=O)c2cccnc2SC)cc1

IC50 [5]: 5.8 µM (active)
Compound: O=C(CN1C(=O)/C(=C2\SC(=S)N(C3CCS(=O)(=O)C3)C2=O)c2ccccc21)Nc1ccccc1 (stereo not given)

Compound: COc1ccc(Cc2nnc(S)n2C)cc1Br
IC50 [6]: 18.9 µM (active)

IC50 [5]: 3.69 µM (active)
Compound: CCOC(=O)c1c(NC(=O)c2cc(-c3ccc(O)cc3)on2)sc(C(C)=O)c1C

IC50 [1]: 14.3 µM (active)
EC50 [3]: > 53 µM (inactive)
IC50 [4]: 10 µM (active)
Compound: N#Cc1ccc(CN(Nc2ccccc2)c2ccccc2)cc1

Compound: C[C@H](CO)N1C[C@H](C)[C@@H](CN(C)C(=O)C2CCOCC2)Oc2cc(C#Cc3ccncc3)ccc2S1(=O)=O
AC50 [7]: 3.77 µM (active)

Compound: COc1ccc(NC(=O)Nc2cccc3c2O[C@@H](CN(C)Cc2ccc(C(=O)O)cc2)[C@@H](C)CN([C@@H](C)CO)C3=O)cc1
AC50 [8]: 20 µM (inactive)

Compound: CCCNC(=O)C[C@@H]1CC[C@@H]2[C@H](COc3ccc(NS(=O)(=O)c4ccccc4C)cc3C(=O)N2C)O1
AC50 [7]: 56 µM (active)

Compound: C[C@@H]1CN([C@@H](C)CO)S(=O)(=O)c2ccc(C#CC3CC3)cc2O[C@@H]1CN(C)C(=O)c1cccc(F)c1
AC50 [7]: 8.3 µM (active)

Compound: C[C@@H]1CN([C@H](C)CO)C(=O)Cc2cc(NC(=O)Nc3ccc(C(F)(F)F)cc3)ccc2O[C@@H]1CN(C)S(=O)(=O)c1ccccc1
AC50 [8]: 4.23 µM (active)

Compound: C[C@@H]1CCCCO[C@@H](CN(C)Cc2ccc(Cl)c(Cl)c2)[C@@H](C)CN([C@H](C)CO)C(=O)c2cc(NS(=O)(=O)c3ccccc3)ccc2O1
AC50 [8]: 5.37 µM (active)

Compound: COc1ccccc1S(=O)(=O)N(C)C[C@@H]1OCc2ccccc2-c2c(n(C)c3ccccc23)C(=O)N([C@@H](C)CO)C[C@@H]1C
AC50 [9]: 0.445 µM (active)
AC50 [10]: 0.507 µM (active)
AC50 [11]: 2.19 µM (active)
AC50 [12]: 0.44 µM (active)

Compound: N#Cc1cccc(-c2ccc3c(c2)[C@H]2[C@H](CCN2Cc2ccncc2)[C@@H](CO)N3)c1
AC50 [9]: 1.4 µM (active)
AC50 [10]: 1.57 µM (active)
AC50 [11]: 1.99 µM (active)
AC50 [12]: 3.28 µM (active)
AC50 [13]: > 100 µM (inactive)

Compound: C[C@H](CO)N1C[C@H](C)[C@H](CN(C)CC2CC2)Oc2ccc(NC(=O)Nc3cccc4ccccc34)cc2CC1=O
AC50 [9]: 1.25 µM (active)
AC50 [10]: 2.51 µM (active)
AC50 [11]: 2.51 µM (active)
AC50 [12]: 2.47 µM (active)
AC50 [13]: 48.5 µM (active)

— ChEMBL document CHEMBL1201862, “PubChem BioAssay data set” (2004)
